In this test the target is T1, LHRH receptor (Rattus norvegicus, UniProt P30969).
T1 construct: endogenous in cells
T1 sequence (P30969 1-327): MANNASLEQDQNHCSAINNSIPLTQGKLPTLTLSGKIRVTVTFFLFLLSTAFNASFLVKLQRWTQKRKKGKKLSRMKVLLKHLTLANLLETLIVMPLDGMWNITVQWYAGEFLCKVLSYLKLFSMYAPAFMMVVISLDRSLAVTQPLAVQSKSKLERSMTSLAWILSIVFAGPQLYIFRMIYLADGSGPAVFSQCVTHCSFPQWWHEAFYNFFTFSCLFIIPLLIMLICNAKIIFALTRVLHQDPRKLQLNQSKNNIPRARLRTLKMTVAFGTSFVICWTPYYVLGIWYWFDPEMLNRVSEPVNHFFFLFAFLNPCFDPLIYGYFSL
Put plainly: in vitro LHRH antagonist potency (pA2) against the agonist leuprolide. Conditions: negative logarithm of the antagonist concentration which shifts the response curve produced by the agonist leuprolide to two-fold higher concentration. It is filed as cell-based. The essentials:
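Functional antagonism against the agonist leuprolide. pA2 is the negative log of antagonist concentration that shifts the leuprolide response curve to twofold higher concentration.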

The structures appear in SMILES notation. Where a SMILES comes first, the peptide text is derived from it. Side-chain parts run from the residue outwards. [ ]: non-standard residue; d: D form. The star is where a group is joined. ξ: configuration not given here. ξTetrahydrofuran2carbonyl = O=C(C1CCCO1)*; dPhe(4-Cl) = N[C@H](Cc1ccc(Cl)cc1)C(=O)O; d2Nal = N[C@H](Cc1ccc2ccccc2c1)C(=O)O; Lys(iPr) = CC(C)NCCCC[C@H](N)C(=O)O; NMeY = CN[C@@H](Cc1ccc(O)cc1)C(=O)O; d3Pal = N[C@H](Cc1cccnc1)C(=O)O; Nicotinoyl = O=C(c1cccnc1)*; dOrn = NCCC[C@@H](N)C(=O)O; azaGly = NNC(=O)O

In the case of `CC(=O)N[C@H](Cc1ccc2ccccc2c1)C(=O)N[C@H](Cc1ccc(Cl)cc1)C(=O)N[C@H](Cc1cccnc1)C(=O)N[C@@H](CO)C(=O)N(C)[C@@H](Cc1ccc(O)cc1)C(=O)N[C@H](CCCNC(=O)CNC(=O)c1cccnc1)C(=O)N[C@@H](CC(C)C)C(=O)N[C@@H](CCCCNC(C)C)C(=O)N1CCC[C@H]1C(=O)N[C@H](C)C(N)=O` [Example 54, NAc-D2Nal^1 -D4ClPhe^2 -D3Pal^3 -Ser^4 -NMeTyr^5 -DOrn(N-epsilon-Gly-Nicotinyl)^6 -Leu^7 -Lys(N-epsilon-Isopropyl)^8 -Pro^9 -DAla^10 NH2] (Ac-[d2Nal][dPhe(4-Cl)][d3Pal]S[NMeY][dOrn]([Gly-Nicotinoyl])L[Lys(iPr)]P[dA]-NH2), the Kb is 0.0302 nM.
Turning to `CC(=O)N[C@H](Cc1ccc2ccccc2c1)C(=O)N[C@H](Cc1ccc(Cl)cc1)C(=O)N[C@H](Cc1cccnc1)C(=O)N[C@@H](CO)C(=O)N(C)[C@@H](Cc1ccc(O)cc1)C(=O)N[C@H](CCCCNC(=O)NNC(=O)c1cccnc1)C(=O)N[C@@H](CC(C)C)C(=O)N[C@@H](CCCCNC(C)C)C(=O)N1CCC[C@H]1C(=O)N[C@H](C)C(N)=O` [Example 3, NAc-D2Nal^1 -D4ClPhe^2 -D3Pal^3 -Ser^4 -NMeTyr^5 -DLys(N-epsilon-Azagly-Nicotinyl)^6 -Leu^7 -Lys(N-epsilon-Isopropyl)^8 -Pro^9 -DAla^10 NH2] (Ac-[d2Nal][dPhe(4-Cl)][d3Pal]S[NMeY][dK]([azaGly-Nicotinoyl])L[Lys(iPr)]P[dA]-NH2), the Kb was 0.0049 nM.
As for `CC(=O)N[C@H](Cc1ccc2ccccc2c1)C(=O)N[C@H](Cc1ccc(Cl)cc1)C(=O)N[C@H](Cc1cccnc1)C(=O)N[C@@H](CO)C(=O)N(C)[C@@H](Cc1ccc(O)cc1)C(=O)N[C@H](CCCNC(=O)[C@@H](CO)NC(=O)c1cccnc1)C(=O)N[C@@H](CC(C)C)C(=O)N[C@@H](CCCNC(=N)N)C(=O)N1CCC[C@H]1C(=O)N[C@H](C)C(N)=O` [Example 49b, NAc-D2Nal^1 -D4ClPhe^2 -D3Pal^3 -Ser^4 -NMeTyr^5 -DOrn(N-epsilon-DSer-Nicotinyl)^6 -Leu^7 -Arg^8 -Pro^9 -DAla^10 NH2] (Ac-[d2Nal][dPhe(4-Cl)][d3Pal]S[NMeY][dOrn]([dS-Nicotinoyl])LRP[dA]-NH2), the Kb is 0.0155 nM.
In the case of `CC(=O)N[C@H](Cc1ccc2ccccc2c1)C(=O)N[C@H](Cc1ccc(Cl)cc1)C(=O)N[C@H](Cc1cccnc1)C(=O)N[C@@H](CO)C(=O)N(C)[C@@H](Cc1ccc(O)cc1)C(=O)N[C@H](CCCCNC(=O)NNC(=O)c1cccnc1)C(=O)N[C@@H](CC(C)C)C(=O)N[C@@H](CCCNC(=N)N)C(=O)N1CCC[C@H]1C(=O)N[C@H](C)C(N)=O` [Example 37b, NAc-D2Nal^1 -D4ClPhe^2 -D3Pal^3 -Ser^4 -NMeTyr^5 -DLys(N-epsilon-Azagly-Nicotinyl)^6 -Leu^7 -Arg^8 -Pro^9 -DAla^10 NH2] (Ac-[d2Nal][dPhe(4-Cl)][d3Pal]S[NMeY][dK]([azaGly-Nicotinoyl])LRP[dA]-NH2) it was 0.00562 nM; in that of `CC(=O)N[C@H](Cc1ccc2ccccc2c1)C(=O)N[C@H](Cc1ccc(Cl)cc1)C(=O)N[C@H](Cc1cccnc1)C(=O)N[C@@H](CO)C(=O)N(C)[C@@H](Cc1ccc(O)cc1)C(=O)N[C@H](CCCCNC(=O)NNC(=O)C1CCCO1)C(=O)N[C@@H](CC(C)C)C(=O)N[C@@H](CCCCNC(C)C)C(=O)N1CCC[C@H]1C(=O)N[C@H](C)C(N)=O` (stereo partly drawn) [Example 5a, NAc-D2Nal^1 -D4ClPhe^2 -D3Pal^3 -Ser^4 -NMeTyr^5 -DLys(N-epsilon-Azagly-2-Tetrahydrofuroyl)^6 -Leu^7 -Lys(N-epsilon-Isopropyl)^8 -Pro^9 -DAla^10 NH2] (Ac-[d2Nal][dPhe(4-Cl)][d3Pal]S[NMeY][dK]([azaGly-ξTetrahydrofuran2carbonyl])L[Lys(iPr)]P[dA]-NH2), 0.0191 nM; in that of `CC(=O)N[C@H](CO)C(=O)NCCCC[C@@H](NC(=O)[C@H](Cc1ccc(O)cc1)N(C)C(=O)[C@H](CO)NC(=O)[C@@H](Cc1cccnc1)NC(=O)[C@@H](Cc1ccc(Cl)cc1)NC(=O)[C@@H](Cc1ccc2ccccc2c1)NC(C)=O)C(=O)N[C@@H](CC(C)C)C(=O)N[C@@H](CCCNC(=N)N)C(=O)N1CCC[C@H]1C(=O)N[C@H](C)C(N)=O` [Example 8, NAc-D2Nal^1 -D4ClPhe^2 -D3Pal^3 -Ser^4 -NMeTyr^5 -DLys(N-epsilon-DSer-Acetyl)^6 -Leu^7 -Arg^8 -Pro^9 -DAla^10 NH2] (Ac-[d2Nal][dPhe(4-Cl)][d3Pal]S[NMeY][dK]([dS-Ac])LRP[dA]-NH2), 0.00794 nM.

A word on the Kb: it is the affinity of an antagonist, worked out from how it opposes an agonist.

The values are drawn from US5698522A, “6-position modified decapeptide LHRH antagonists” (Abbott Laboratories, priority 1995, dated 1997).
